The results in this text go back to ChEMBL document CHEMBL1132837, “3-(4-Piperidinyl)- and 3-(8-aza-bicyclo[3.2.1]oct-3-yl)-2-phenyl-1H-indoles as bioavailable h5-HT2A antagonists” (Bioorg Med Chem Lett, 2000).

pKi: −log10 of the molar value.

Data set [1] addresses 5-hydroxytryptamine receptor 2A (Homo sapiens, UniProt P28223). The data set can be described thus: Displacement of [3H]ketanserin from human 5-hydroxytryptamine 2A receptor expressed in CHO cells. Type of data set: cell-based. (In general: Loss of bound radioactivity is the signal in a displacement assay; it reports binding, not function.)
In data set [2] the target is Dopamine D2 receptor and serotonin 2a receptor (Homo sapiens) (UniProt P14416+P28223). The data set can be described thus: Selectivity as ratio of Ki against human dopamine D2 and 5-HT2A receptors. Type of data set: protein assay.
Sequence of Dopamine D2 receptor and serotonin 2a receptor (Homo sapiens) (P14416 whole entry, looked up): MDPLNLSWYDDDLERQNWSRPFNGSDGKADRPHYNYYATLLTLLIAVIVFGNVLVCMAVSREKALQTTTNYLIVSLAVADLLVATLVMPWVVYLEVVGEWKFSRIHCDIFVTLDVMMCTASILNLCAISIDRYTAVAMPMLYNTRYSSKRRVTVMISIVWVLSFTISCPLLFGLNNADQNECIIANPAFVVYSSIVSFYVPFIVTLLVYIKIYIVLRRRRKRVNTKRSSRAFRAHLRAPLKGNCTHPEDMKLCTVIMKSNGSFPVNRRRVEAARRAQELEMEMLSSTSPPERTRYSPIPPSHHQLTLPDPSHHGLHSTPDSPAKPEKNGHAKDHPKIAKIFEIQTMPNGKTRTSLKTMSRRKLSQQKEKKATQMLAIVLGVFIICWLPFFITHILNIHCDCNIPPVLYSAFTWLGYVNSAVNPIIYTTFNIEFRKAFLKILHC
Sequence of Dopamine D2 receptor and serotonin 2a receptor (Homo sapiens) (P28223 whole entry, looked up): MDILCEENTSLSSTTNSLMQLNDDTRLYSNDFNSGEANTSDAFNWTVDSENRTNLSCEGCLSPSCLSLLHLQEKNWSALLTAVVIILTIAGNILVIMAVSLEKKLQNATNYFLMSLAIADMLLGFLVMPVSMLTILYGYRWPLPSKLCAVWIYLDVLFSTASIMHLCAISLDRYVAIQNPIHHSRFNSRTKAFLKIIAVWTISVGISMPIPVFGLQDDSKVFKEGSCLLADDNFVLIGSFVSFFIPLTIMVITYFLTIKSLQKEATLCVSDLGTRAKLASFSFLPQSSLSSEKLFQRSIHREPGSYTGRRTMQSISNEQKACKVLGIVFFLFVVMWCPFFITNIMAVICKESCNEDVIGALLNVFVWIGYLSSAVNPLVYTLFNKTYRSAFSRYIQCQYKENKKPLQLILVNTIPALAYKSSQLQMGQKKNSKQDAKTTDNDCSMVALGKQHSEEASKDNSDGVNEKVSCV
Data set [3] addresses Serotonin 2 receptors; 5-HT2a & 5-HT2c (Homo sapiens) (UniProt P28223+P28335). The data set can be described thus: Selectivity as ratio of Ki against human 5-HT2C and 5-HT2A receptors. The data set is classed as protein assay.
The nature of data set [4]: Oral bioavailability in rat. As to conditions: in vivo. Type of data set: ADME, organism-based.
Data set [5] in a line: Oral bioavailability was determined in dogs. Type of data set: ADME, organism-based, Canis lupus familiaris. Conditions: dog, in vivo, read-out: Bioavailabiility.

Sequence of Serotonin 2 receptors; 5-HT2a & 5-HT2c (Homo sapiens) (P28223 whole entry, looked up): as above
Sequence of Serotonin 2 receptors; 5-HT2a & 5-HT2c (Homo sapiens) (P28335 whole entry, looked up): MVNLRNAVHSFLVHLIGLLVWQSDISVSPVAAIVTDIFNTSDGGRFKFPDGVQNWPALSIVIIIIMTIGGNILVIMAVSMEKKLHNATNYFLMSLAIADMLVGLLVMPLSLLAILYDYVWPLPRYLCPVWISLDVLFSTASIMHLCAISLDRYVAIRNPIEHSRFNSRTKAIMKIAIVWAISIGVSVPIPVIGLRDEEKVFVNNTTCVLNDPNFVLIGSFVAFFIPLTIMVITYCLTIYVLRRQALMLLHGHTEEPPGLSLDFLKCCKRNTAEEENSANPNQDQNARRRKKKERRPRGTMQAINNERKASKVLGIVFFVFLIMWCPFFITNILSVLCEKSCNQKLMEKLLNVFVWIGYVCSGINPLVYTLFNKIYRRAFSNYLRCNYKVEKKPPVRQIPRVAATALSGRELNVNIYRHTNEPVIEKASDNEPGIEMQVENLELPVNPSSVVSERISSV
Sequence of 5-hydroxytryptamine receptor 2A (P28223 whole entry): as the sequence (P28223 whole entry, looked up) above

In data set [1], `CN1[C@@H]2CC[C@H]1C[C@H](N1CCC(c3c(-c4ccccc4)[nH]c4ccccc34)CC1)C2` (stereo in doubt; 13) [listing 1 of 2 here] showed a negative-log Ki (pKi) of 8.96.

Consider `c1ccc(CCN2C3CCC2CC(N2CCC(c4c(-c5ccccc5)[nH]c5ccccc45)CC2)C3)cc1` (stereo in doubt; 18) [listing 1 of 2 here], for which the values for the Ratio in data set [2] and in data set [3] were 170 and 60, respectively.

The compound `c1ccc(CCN2CCC(c3c(-c4ccccc4)[nH]c4ccccc34)CC2)cc1` registered a bioavailability in data set [4] of 12%. In data set [1], this compound had a pKi of 9.30. Moreover, the Ratio was 690 in data set [2] and 160 in data set [3].

Regarding `c1ccc(-c2[nH]c3ccccc3c2C2CC3CCC(C2)N3)cc1` (configuration not stated), in data set [1], the pKi was 8.74. Further, the Ratio in data set [2] stood at 1060; in data set [3], 200.

`CN1[C@@H]2CC[C@H]1C[C@H](N1CCC(c3c(-c4ccccc4)[nH]c4ccccc34)CC1)C2` (stereo in doubt; 15) [listing 1 of 2 here]: the Ratio in data set [2] turned out to be 960; in data set [3], 45.

In turn, `CN1[C@@H]2CC[C@H]1C[C@H](N1CCC(c3c(-c4ccccc4)[nH]c4ccccc34)CC1)C2` (stereo in doubt; 15) [listing 2 of 2 here] gave a negative-log Ki (pKi) in data set [1] of 8.82.

Take `c1ccc(CCN2C3CCC2CC(N2CCC(c4c(-c5ccccc5)[nH]c5ccccc45)CC2)C3)cc1` (stereo in doubt; 17) [listing 1 of 2 here]: the Ratio in data set [2] is 1080; in data set [3] it was 860.

In the case of `CN1CCC(c2c(-c3ccccc3)[nH]c3ccccc23)CC1`, in data set [1], the pKi is 8.11. The figures for the Ratio in data set [2] and in data set [3] were 205 and 30, respectively.

Consider `c1ccc(CCN2C3CCC2CC(N2CCC(c4c(-c5ccccc5)[nH]c5ccccc45)CC2)C3)cc1` (stereo in doubt; 17) [listing 2 of 2 here], for which the bioavailability in data set [4] came out at 18%. This compound also had a pKi in data set [1] of 8.92.

With `CN1[C@@H]2CC[C@H]1C[C@H](N1CCC(c3c(-c4ccccc4)[nH]c4ccccc34)CC1)C2` (stereo in doubt; 13) [listing 2 of 2 here], the Ratio in data set [2] was 1190; in data set [3], 70.

Regarding `c1ccc(CCN2C3CCC2CC(N2CCC(c4c(-c5ccccc5)[nH]c5ccccc45)CC2)C3)cc1` (stereo in doubt; 18) [listing 2 of 2 here], the negative-log Ki (pKi) in data set [1] was 8.59.

Consider `O=C1NCCN1CCN1CCC(c2c(-c3ccccc3)[nH]c3ccccc23)CC1`, for which the results for the bioavailability in data set [4] and in data set [5] were 40% and 33%, respectively. This compound also showed a negative logarithm of the Ki (pKi) in data set [1] of 8.14. Also, the figures for the Ratio in data set [2] and in data set [3] were 250 and 160, respectively.

In the case of `c1ccc(-c2[nH]c3ccccc3c2CCN2CCCCC2)cc1`, in data set [4], the bioavailability is < 5%. In addition, the Ratio was found to be 330 in data set [2] and 100 in data set [3].

Take `c1ccc(CN2CCC(c3c(-c4ccccc4)[nH]c4ccccc34)CC2)cc1`: the negative-log Ki (pKi) in data set [1] was 7.55. In addition, the Ratio in data set [2] was found to be 2; in data set [3] it was 30.

In the case of `c1ccc(-c2[nH]c3ccccc3c2C2CCNCC2)cc1`, the negative-log Ki (pKi) in data set [1] was 7.92. In addition, the Ratio amounted to 130 in data set [2] and 30 in data set [3].

The term pKi denotes the negative decadic logarithm of the Ki, by convention in mol/L. Read a high pKi as a small Ki.
